Measured values as given in PMC10997755, “Discovery of a small-molecule inhibitor that traps Polθ on DNA and synergizes with PARP inhibitors” (Nature Communications, 2024).
Where “and” joins values, the source holds several entries; their conditions need not be identical. Equal entries are not always repeated. Entries after “also recorded” stand apart in the source; their conditions may differ.

Legend:
Polε = assay: Primer extension by recombinant Pols (selectivity); type: biochemical
[1] = system: MMEJ reporter (EJ2-GFP) in U2OS cells; assay: Chromosomal MMEJ GFP assay; type: cell-based; conditions: for % GFP/dsRED ratio, Combined mean: Combined EXP.1-3 (0 uM: 3.78889); for % GFP/dsRED ratio, mean per experiment: means of EXP.1, 2, 3 (0 uM: 4.4, 3.73333, 3.23333); for % GFP/dsRED ratio: single replicates of EXP.1-3
Procedure: U2OS cells harboring the chromosomal (EJ2-GFP cassette) MMEJ reporter were plated and treated with various concentrations of RTX-161 for 16 h. Cells were co-transfected with either pCMV–3x- NLS-I-SceI or control vector pCMV-3x-NLS using Lipofectamine 2000 (Invitrogen) along with dsRED-Mito cDNA (control for transfection efficiency). GFP^+ frequencies were measured 3 days post transfection by FACS using Facscanto (Becton Dickinson) in triplicates and corrected for transfection efficiency and background events.

Polθ-pol on DNA/DNA = molecular target: T1, Polθ-pol on DNA/DNA (Homo sapiens, UniProt O75417); assay: Relative rate of ddCMP addition on DNA/DNA; type: biochemical; conditions: for Average % Extension (Single nt) / % Extension (Single nt): DNA template, 2uM RTX-161; for Average % Extension (Single nt): average of 3 trials; for % Extension (Single nt): single trials 1-3
T1 construct: purified recombinant human Polθ-pol (comprising amino acid residues 1792–2590); made in house
T1 sequence (O75417 1792-2590): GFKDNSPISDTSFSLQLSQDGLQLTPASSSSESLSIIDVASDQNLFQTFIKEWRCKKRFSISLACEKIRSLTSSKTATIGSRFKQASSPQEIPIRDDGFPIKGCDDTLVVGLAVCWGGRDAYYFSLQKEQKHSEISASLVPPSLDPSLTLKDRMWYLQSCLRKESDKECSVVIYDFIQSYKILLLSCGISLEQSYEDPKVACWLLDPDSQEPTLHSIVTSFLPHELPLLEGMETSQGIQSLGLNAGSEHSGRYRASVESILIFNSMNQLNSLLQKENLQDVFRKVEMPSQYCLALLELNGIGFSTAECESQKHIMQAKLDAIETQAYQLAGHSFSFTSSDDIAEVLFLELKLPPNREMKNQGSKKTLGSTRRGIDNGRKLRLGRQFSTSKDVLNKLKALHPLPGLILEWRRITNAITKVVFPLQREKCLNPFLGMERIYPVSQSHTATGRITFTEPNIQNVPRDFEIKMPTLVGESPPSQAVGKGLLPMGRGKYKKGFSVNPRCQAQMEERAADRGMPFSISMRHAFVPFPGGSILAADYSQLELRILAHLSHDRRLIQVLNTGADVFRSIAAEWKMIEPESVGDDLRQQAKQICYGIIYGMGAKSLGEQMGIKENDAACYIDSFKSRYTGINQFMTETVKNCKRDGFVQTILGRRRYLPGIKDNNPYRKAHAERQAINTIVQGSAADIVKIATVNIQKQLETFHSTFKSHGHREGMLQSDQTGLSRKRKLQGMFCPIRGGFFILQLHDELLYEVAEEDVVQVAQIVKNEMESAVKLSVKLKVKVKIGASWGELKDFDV
Procedure: (§1) Relative rate of Polθ-pol dAMP addition. The relative rates of dAMP incorporation by Polq-pol in the presence of DMSO or MC160385 with various concentrations of dATP were measured using the following primer extension assay in vitro. 2 nM or Polθ-pol was incubated with 5’ ^32P-γ-ATP labeled 100 nM primer-template (RP469D/RP486) in 1X buffer (25 mM TrisHCl pH 7.8, 0.01% NP40, 10% glycerol, 1 mM DTT, 10 mM MgCl2, 0.1 mg/ml BSA) at room temp. 2.5% DMSO, 7.5 nM or 12 nM of MC160385 was added. Reactions were than initiated by the addition of 20, 50, 100, 200, or 300 μM dATP at room temp. Aliquots of the reactions were removed and terminated by the addition of 50 mM EDTA at 3, 3.5, 4 and 5 min after the reaction was initiated. Radio-labeled DNA was then resolved via denaturing 20% PAGE and visualized by Typhoon PhosphorImager (GE Amersham). Rates of dAMP incorporation were calculated from % extension of the prime-template which was determined using ImageJ software. Relative rate of ddCMP addition on DNA/DNA and DNA/RNA. 25 nM nucleic acid DNA/DNA or DNA/RNA primer-template (RP559/RP702 or RP559/RP702R) was mixed with 1X reaction buffer (20 mM TrisHCl pH 7.5, 0.01% NP-40, 0.5 mM DTT, 10% glycerol, 0.1 mg/ml BSA, 10 mM MgCl2) in the presence of 250 μM ddCTP at room temp. Next, 2 μM RTx-161 or 2.5% DMSO was added. Reactions were initiated by the addition of 10 nM Polθ-pol. Reaction aliquots were removed and terminated by the addition of 50 mM EDTA at the indicated time points. Radio-labeled DNA was then resolved via denaturing 20% PAGE and visualized by Typhoon PhosphorImager. Percent primer extension by single ddCMP addition at each time point was calculated from % extension of the prime-template which was determined using ImageJ software.

Polθ-pol on DNA/RNA = molecular target: T2, Polθ-pol on DNA/RNA (Homo sapiens, UniProt O75417); assay: Relative rate of ddCMP addition on DNA/RNA; type: biochemical; conditions: for Average % Extension (Single nt) / % Extension (Single nt) / % Extension of Control: RNA template; for Average % Extension (Single nt) / % Extension (Single nt): 2uM RTX-161; for Average % Extension (Single nt): average of 3 trials; for % Extension (Single nt) / % Extension of Control: single trials 1-3; for % Extension of Control: 2uM RTX-161 relative to DMSO
T2 construct: purified recombinant human Polθ-pol (comprising amino acid residues 1792–2590); made in house
T2 sequence (O75417 1792-2590): T1 sequence (O75417 1792-2590)
Procedure: as §1

Polθ-pol = molecular target: T3, Polθ-pol (Homo sapiens, UniProt O75417); assay: Primer extension by recombinant Pols (selectivity); type: biochemical
T3 construct: purified recombinant human Polθ-pol (comprising amino acid residues 1792–2590); made in house
T3 sequence (O75417 1792-2590): T1 sequence (O75417 1792-2590)

Question: Which results are given for `CN(C(=O)Oc1c(N2CCN(CCO)C2=O)cc(C(F)(F)F)cc1C(F)(F)F)c1ccc(F)cc1` [RTx-161]?
Answer: % Full Extension (Polε; Pol Epsilon): 91.14%; % Inhibition Compared to Control (Polε; Pol Epsilon): -0.19%; % Relative Maximum Extension (Polε; Pol Epsilon): 100.19%; inhibition of primer extension (Polε; selectivity panel, Pol named in Supplementary Fig. 1h): no inhibition; % GFP/dsRED ratio, Combined mean ([1]; 5 uM): 3.422%; % GFP/dsRED ratio, mean per experiment ([1]; 5 uM): 3.067% and 3.933% and 3.267%; % GFP/dsRED ratio ([1]; 5 uM): 2.8% and 4% and 2.5% and 3.3% and 3.6% and 3.5% and 3.1% and 4.2% and 3.8%; % GFP/dsRED ratio, Combined mean ([1]; 10 uM): 3.378%; % GFP/dsRED ratio, mean per experiment ([1]; 10 uM): 3.067% and 3.8% and 3.267%; % GFP/dsRED ratio ([1]; 10 uM): 2.9% and 3.3% and 2.6% and 3.2% and 3.9% and 3.4% and 3.1% and 4.2% and 3.8%; % GFP/dsRED ratio, Combined mean ([1]; 15 uM): 2.733%; % GFP/dsRED ratio, mean per experiment ([1]; 15 uM): 3.033% and 2.067% and 3.1%; % GFP/dsRED ratio ([1]; 15 uM): 2.9% and 2.2% and 3.3% and 2.8% (2×) and 2.1% and 3.4% and 1.9% and 3.2%; cellular MMEJ (GFP reporter) ([1]; 20 μM RTx-161): reduction in cellular MMEJ; also recorded: suppression of MMEJ; % GFP/dsRED ratio, Combined mean ([1]; 20 uM): 1.611%; % GFP/dsRED ratio, mean per experiment ([1]; 20 uM): 1.8% and 1.367% and 1.667%; % GFP/dsRED ratio ([1]; 20 uM): 1.9% and 1.3% and 1.8% and 1.6% (2×) and 1.5% and 1.2% and 1.7%; inhibition of single nucleotide incorporation on DNA/DNA (Polθ-pol on DNA/DNA; 2 μM RTx-161, closed conformation): significant inhibition; Average % Extension (Single nt) (Polθ-pol on DNA/DNA; Time 0): 0.00%; % Extension (Single nt) (Polθ-pol on DNA/DNA; Time 0): 0.00%; Average % Extension (Single nt) (Polθ-pol on DNA/DNA; Time 0.5): 11.29%; % Extension (Single nt) (Polθ-pol on DNA/DNA; Time 0.5): 12.34% and 11.73% and 9.81%; Average % Extension (Single nt) (Polθ-pol on DNA/DNA; Time 1): 18.42%; % Extension (Single nt) (Polθ-pol on DNA/DNA; Time 1): 20.67% and 19.99% and 14.59%; Average % Extension (Single nt) (Polθ-pol on DNA/DNA; Time 2): 25.83%; % Extension (Single nt) (Polθ-pol on DNA/DNA; Time 2): 27.74% and 29.45% and 20.29%; inhibition of single nucleotide incorporation on DNA/RNA (Polθ-pol on DNA/RNA; 2 μM RTx-161, open conformation): failed to significantly inhibit; Average % Extension (Single nt) (Polθ-pol on DNA/RNA; Time 0): 0.00%; % Extension (Single nt) (Polθ-pol on DNA/RNA; Time 0): 0.00%; Average % Extension (Single nt) (Polθ-pol on DNA/RNA; Time 5): 4.59%; % Extension (Single nt) (Polθ-pol on DNA/RNA; Time 5): 2.50% and 5.50% and 5.76%; Average % Extension (Single nt) (Polθ-pol on DNA/RNA; Time 10): 7.95%; % Extension (Single nt) (Polθ-pol on DNA/RNA; Time 10): 4.80% and 9.47% and 9.59%; Average % Extension (Single nt) (Polθ-pol on DNA/RNA; Time 20): 16.13%; % Extension (Single nt) (Polθ-pol on DNA/RNA; Time 20): 15.85% and 16.30% and 16.24%; Average % Extension (Single nt) (Polθ-pol on DNA/RNA; Time 40): 27.98%; % Extension (Single nt) (Polθ-pol on DNA/RNA; Time 40): 29.57% and 26.15% and 28.23%; % Extension of Control (Polθ-pol on DNA/RNA; Time 5): 47.30% and 65.75% and 74.39%; % Extension of Control (Polθ-pol on DNA/RNA; Time 10): 39.83% and 67.79% and 72.59%; % Extension of Control (Polθ-pol on DNA/RNA; Time 20): 72.60% and 71.13% and 71.98%; % Extension of Control (Polθ-pol on DNA/RNA; Time 40): 79.52% and 73.56% and 82.47%; % Full Extension (Polθ-pol; Pol Theta): 14.28%; % Inhibition Compared to Control (Polθ-pol; Pol Theta): 85.17%; % Relative Maximum Extension (Polθ-pol; Pol Theta): 14.83%; inhibition of primer extension (Polθ-pol; selectivity panel): selective inhibition
